From US9175077B2, “Nucleic acids encoding biologically active polypeptides derived from a novel early stage pregnancy factor designated maternin (MA)” (NOBEL BIOSCIENCES LLC, priority 1999, dated 2015) come the findings set out here.

Entries after “also recorded” stand apart in the source; their conditions may differ.

The subject of one assay is Ewing's sarcoma. As to the kind of experiment: Confocal microscopy apoptosis. Type of assay: cell-based, human. As to conditions: 200 ng/ml; 24 hrs. The procedure:
(§1) More extensive studies of the effects of MA and with truncated synthetic forms of MA (MAS) on a wide range of other human tumor cells were carried out using three-dimensional confocal microscopy. Cells were cultured and then seeded onto gelatinized glass chamber slides and incubated 24 hrs with the various test materials. The slides were then fixed with formalin and treated serially with Triton X-100 (0.01%) for 10 min at 25°, 0.4 ug/ml fluorescein isothiocyanate (FITC)-labeled Phalloidin (Sigma Chem. Co.) at room temperature for 30 min to bind actin, washed with PBS and the DNA stained with Propidium iodide (PI) (0.5 ug·ml) (Sigma Chemical Co.), for 15 min. The stained slides were washed and mounted on slow fade (Molecular Probes, Inc., Eugene, Oreg.) and examined through a dual emission filter XF53 (Omega, Inc., Brattlesboro, Va.) by fluorescent microscopy. In some experiments only DNA staining was performed. In these instances Triton X-100 was not used. The slides were stained with PI and examined for cell morphology and chromatin degradation under 3D confocal microscopy.

Another assay deals with KS Y-1 cells. Nature of the assay: Confocal microscopy apoptosis. The format is cell-based, human. Conditions: 200 ng/ml; 24 hrs. As for the experimental part: as §1
Assay [1] has as its system carcinoma of the breast HTB124. Nature of the assay: Confocal microscopy apoptosis. Type of assay: cell-based, human. Conditions: 200 ng/ml; 24 hrs. The procedure: as §1
The next assay relates to carcinoma of the colon. As to the kind of experiment: Confocal microscopy apoptosis. The format is cell-based, human. As to conditions: 200 ng/ml; 24 hrs. The procedure:
as §1

Assay [2] concerns carcinoma of the kidney HTB46. Nature of the assay: Confocal microscopy apoptosis. Conditions: 200 ng/ml; 24 hrs. Type of assay: cell-based, human. As for the experimental part:
as §1

In assay [3] the test system is carcinoma of the lung HTB184. As to the kind of experiment: Confocal microscopy apoptosis. The format is cell-based, human. As to conditions: 200 ng/ml; 24 hrs. The procedure: as §1
Assay [4] relates to carcinoma of the pancreas CRL 1682. Nature of the assay: Confocal microscopy apoptosis. The format is cell-based, human. As to conditions: 200 ng/ml; 24 hrs. The procedure:
as §1

The subject of a further assay is fibrosarcoma 4TB166. Nature of the assay: Confocal microscopy apoptosis. Type of assay: cell-based, human. As to conditions: 200 ng/ml; 24 hrs. The procedure: as §1
The next assay concerns gliobastoma HTB16. Nature of the assay: Confocal microscopy apoptosis. The format is cell-based, human. As to conditions: 200 ng/ml; 24 hrs. As for the experimental part:
as §1

The subject of assay [5] is leukemia and lymphoma cell lines: HUT78, DAVDI, HG, SULTAN, T-cell lymphoma. Nature of the assay: Confocal microscopy apoptosis. Type of assay: cell-based, human. Conditions: 200 ng/ml; 24 hrs. As for the experimental part: as §1
For the next assay, the system named is melanoma HTB67. Nature of the assay: Confocal microscopy apoptosis. The format is cell-based, human. Conditions: 200 ng/ml; 24 hrs. As for the experimental part:
as §1

Assay [6] deals with prostate carcinoma cell line PC3. As to the kind of experiment: Confocal microscopy apoptosis. Conditions: 200 ng/ml; 24 hrs. Type of assay: cell-based, human. As for the experimental part:
as §1

Assay [7] deals with prostate carcinoma cell line PC4. As to the kind of experiment: Confocal microscopy apoptosis. The format is cell-based, human. Conditions: 200 ng/ml; 24 hrs. As for the experimental part:
as §1

In assay [8] the test system is human carcinoma and sarcoma cells (PC3, KS Y-1). As to the kind of experiment: Xenotransplanted human tumors in immunodeficient mice. Type of assay: in vivo. The procedure:
In the first set of experiments, MA was tested against tumors formed by xenotransplantation of various human carcinoma and sarcoma cells in immunodeficient mice. […] […] Three different synthetic forms of MA were used: full length (MAS3) and the previously described MAS1 and MAS2 (Panel C).

Assay [9] concerns B16 melanoma and Lewis lung (LL) carcinoma. Nature of the assay: Metastatic B16 melanoma and Lewis lung carcinoma in C57/BL mice. The format is in vivo. Conditions: MAS1 or MAS2 0.1 ug or 1.0 ug. As for the experimental part: B16 melanoma and Lewis lung (LL) carcinoma cells were first shown to be susceptible to the pro-apoptotic effects of MA (FIG. 6, Panels C and D) at the same dose range used with cultured human tumor cells. The tumor cells grown in standard culture conditions were used to generate metastatic cancers in pathogen-free 6-8 week old C57/BL mice (Charles River). In one set of experiments, the animals were treated with MAS1 or MAS2 at two doses, 0.1 ug or 1.0 ug either in a pre-treatment protocol (two subcutaneous inoculations 24 and 48 hrs before transplanting the tumor cells).

The next assay addresses T1, hCG receptor (Homo sapiens, UniProt P22888).
T1 construct: host or cells: unspecified cells
Nature of the assay: hCG receptor binding. The text has this: In this regard, unusual β-hCG gene transcripts have been known for several years,^207 and as noted above, among the several related heterodimeric glycoprotein hormones, only β-hCG has multiple genes.

T1 sequence (P22888 27-699): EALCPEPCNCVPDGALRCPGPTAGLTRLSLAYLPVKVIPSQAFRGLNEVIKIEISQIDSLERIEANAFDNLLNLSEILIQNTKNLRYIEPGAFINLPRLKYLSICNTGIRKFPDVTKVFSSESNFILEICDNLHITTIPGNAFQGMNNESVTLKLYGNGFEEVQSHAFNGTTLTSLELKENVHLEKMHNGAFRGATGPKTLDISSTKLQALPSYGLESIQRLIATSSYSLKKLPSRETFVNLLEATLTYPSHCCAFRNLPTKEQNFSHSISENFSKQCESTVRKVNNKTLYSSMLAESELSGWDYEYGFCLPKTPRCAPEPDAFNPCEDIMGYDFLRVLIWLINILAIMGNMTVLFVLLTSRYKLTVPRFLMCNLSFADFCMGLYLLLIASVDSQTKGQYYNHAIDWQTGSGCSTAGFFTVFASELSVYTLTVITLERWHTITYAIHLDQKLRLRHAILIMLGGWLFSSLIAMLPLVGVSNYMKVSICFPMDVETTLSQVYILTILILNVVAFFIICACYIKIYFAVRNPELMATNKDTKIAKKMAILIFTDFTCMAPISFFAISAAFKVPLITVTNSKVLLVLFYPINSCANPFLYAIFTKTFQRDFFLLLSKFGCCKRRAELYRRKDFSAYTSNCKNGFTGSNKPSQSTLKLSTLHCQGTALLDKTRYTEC

“VVCNYRDVRFESIRLPGCPRGVNPVVSYAVALSCQ [MA]”: the induction of apoptosis entry (with Ewing's sarcoma; in the assay with KS Y-1 cells; in assay [1]; with carcinoma of the colon; in assay [2]; in [3]) was “induced apoptosis” throughout. In addition, the induction of apoptosis entry (in assay [4]; in the assay with fibrosarcoma 4TB166; in the assay with gliobastoma HTB16; in assay [5]; in the assay on melanoma HTB67; in assay [6]) was “induced apoptosis” throughout. Moreover, in assay [7], the induction of apoptosis result is reported as “induced apoptosis”. For the same sequence, the tumor regression entry in [8] (300-500 ng/day (about 100-200 pmoles) for 2 to 3 weeks) is given as “complete tumor regression”. In addition, the “effect on xenotransplanted tumor (qualitative)” value in assay [8] (controls at equivalent and higher molar concentrations) is “marked tumor regression; also recorded: KS tumor abolished”. Also, the “inhibition of tumor growth in vivo” value in assay [8] (mouse, in vivo) was 60-100%. Further, the “blood vessel formation / angiogenesis” value in [8] (thin sections of the tumors) is “reduction in blood vessel formation”. The “pro-apoptotic effect on neoplastic cells in vivo” value in assay [9] is listed as “potent pro-apoptotic effect”. Moreover, the “binding to the hCG receptor” value on hCG receptor is recorded as “does not bind”.
